Data as given in patent US9062038B2, “Heteroaryls and uses thereof” (Millennium Pharmaceuticals, Inc., priority 2010, dated 2015).
pIC50: −log10 of the molar value.

How the values were obtained:
PI3K beta = biological target: T1, PI3K beta (Homo sapiens, UniProt P42338); assay: Human PI3K beta enzyme assay (HTRF, procedure as for PI3K alpha); format: biochemical
T1 construct: His (N); host or cells: SF9 insect cells (baculovirus)
Source text: (§1) The catalytic subunits of PI3Ks are cloned into either pDEST8(p110 alpha) or pDEST10(p110beta, p110delta, and p110gamma) as N-terminal His tagged fusion proteins using the Gateway system (Invitrogen, catalog#11804-010 for pDEST8 and 11806-015 for pDEST10). The sequences are verified before recombinant protein expression using the Baculovirus Expression System with Gateway® Technology. The accession numbers for the subunits are as follows: • p110 alpha (GB: U79143) • p110beta (GB: S67334) • p110delta (GB: U86453) • p110gamma (GB: X83368)
(§2) The regulatory subunits of PI3Ks are cloned into pDEST8 as un-tagged protein using the Gateway system (Catalog#11804-010). […]
0.5 uL compounds in DMSO are added to wells of a 384 well microtitre plate (Corning 3575). […] Then 5 ul PI3K stop mix (50 mM Hepes, 5 mM DTT, 150 mM NaCl, 0.01% Tween-20, 15 mM EDTA and 25 nM biotin-PI(3,4,5)P3 (Echelon) is added to quench the reaction followed immediately by addition of 5 ul HTRF detection mix (50 mM Hepes, 5 mM DTT, 150 mM NaCl, 0.01% Tween-20, 40 mM KF, 10 nM GST:GRP-1 PH domain (Millennium Protein Sciences Group), 15 nM Streptavidin-XL (CisBio) and 0.375 nM anti-GST antibody (CisBio) at pH 7.00). The plates are then incubated for 1 hour at room temperature with shaking and then read on a BMG PheraStar Plus reader. […]

PI3Kalpha = biological target: T2, PI3Kalpha (Homo sapiens, UniProt P42336); assay: Human PI3Kα enzyme assay (HTRF); format: biochemical
T2 construct: His (N); host or cells: SF9 insect cells (baculovirus)
Source text: as §1, §2
0.5 uL compounds in DMSO are added to wells of a 384 well microtitre plate (Corning 3575). […] Then 5 ul PI3K stop mix (50 mM Hepes, 5 mM DTT, 150 mM NaCl, 0.01% Tween-20, 15 mM EDTA and 25 nM biotin-PI(3,4,5)P3 (Echelon) is added to quench the reaction followed immediately by addition of 5 ul HTRF detection mix (50 mM Hepes, 5 mM DTT, 150 mM NaCl, 0.01% Tween-20, 40 mM KF, 10 nM GST:GRP-1 PH domain (Millennium Protein Sciences Group), 15 nM Streptavidin-XL (CisBio) and 0.375 nM anti-GST antibody (CisBio) at pH 7.00). The plates are then incubated for 1 hour at room temperature with shaking and then read on a BMG PheraStar Plus reader.

T1 sequence (P42338 whole entry): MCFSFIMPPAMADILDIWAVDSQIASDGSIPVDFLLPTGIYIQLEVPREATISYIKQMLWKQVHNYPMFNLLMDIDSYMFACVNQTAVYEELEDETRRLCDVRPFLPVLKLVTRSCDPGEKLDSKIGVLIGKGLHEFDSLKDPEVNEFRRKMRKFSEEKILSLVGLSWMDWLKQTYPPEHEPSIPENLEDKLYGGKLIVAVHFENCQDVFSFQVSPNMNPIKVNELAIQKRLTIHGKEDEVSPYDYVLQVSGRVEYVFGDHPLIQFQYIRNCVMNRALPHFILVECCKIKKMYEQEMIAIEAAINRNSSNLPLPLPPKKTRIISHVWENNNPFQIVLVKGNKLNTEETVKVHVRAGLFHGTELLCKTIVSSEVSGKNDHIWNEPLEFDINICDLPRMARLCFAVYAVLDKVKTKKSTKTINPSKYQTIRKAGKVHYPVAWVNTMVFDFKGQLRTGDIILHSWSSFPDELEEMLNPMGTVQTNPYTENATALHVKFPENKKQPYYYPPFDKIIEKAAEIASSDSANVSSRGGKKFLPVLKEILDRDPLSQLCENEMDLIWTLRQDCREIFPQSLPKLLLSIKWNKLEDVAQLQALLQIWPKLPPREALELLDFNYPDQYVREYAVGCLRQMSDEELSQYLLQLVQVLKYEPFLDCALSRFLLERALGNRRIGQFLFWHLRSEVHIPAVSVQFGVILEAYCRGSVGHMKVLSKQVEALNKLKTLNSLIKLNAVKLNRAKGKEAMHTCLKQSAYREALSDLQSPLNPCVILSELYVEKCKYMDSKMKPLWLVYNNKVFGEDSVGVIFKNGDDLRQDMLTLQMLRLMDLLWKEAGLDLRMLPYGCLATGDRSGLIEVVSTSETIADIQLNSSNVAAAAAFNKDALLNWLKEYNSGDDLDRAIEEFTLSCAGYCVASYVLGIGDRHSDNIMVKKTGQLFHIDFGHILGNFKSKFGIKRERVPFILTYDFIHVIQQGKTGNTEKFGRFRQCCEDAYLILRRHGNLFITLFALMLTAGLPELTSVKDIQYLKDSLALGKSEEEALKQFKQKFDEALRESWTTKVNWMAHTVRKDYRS
T1 sequence (P27986 whole entry partner): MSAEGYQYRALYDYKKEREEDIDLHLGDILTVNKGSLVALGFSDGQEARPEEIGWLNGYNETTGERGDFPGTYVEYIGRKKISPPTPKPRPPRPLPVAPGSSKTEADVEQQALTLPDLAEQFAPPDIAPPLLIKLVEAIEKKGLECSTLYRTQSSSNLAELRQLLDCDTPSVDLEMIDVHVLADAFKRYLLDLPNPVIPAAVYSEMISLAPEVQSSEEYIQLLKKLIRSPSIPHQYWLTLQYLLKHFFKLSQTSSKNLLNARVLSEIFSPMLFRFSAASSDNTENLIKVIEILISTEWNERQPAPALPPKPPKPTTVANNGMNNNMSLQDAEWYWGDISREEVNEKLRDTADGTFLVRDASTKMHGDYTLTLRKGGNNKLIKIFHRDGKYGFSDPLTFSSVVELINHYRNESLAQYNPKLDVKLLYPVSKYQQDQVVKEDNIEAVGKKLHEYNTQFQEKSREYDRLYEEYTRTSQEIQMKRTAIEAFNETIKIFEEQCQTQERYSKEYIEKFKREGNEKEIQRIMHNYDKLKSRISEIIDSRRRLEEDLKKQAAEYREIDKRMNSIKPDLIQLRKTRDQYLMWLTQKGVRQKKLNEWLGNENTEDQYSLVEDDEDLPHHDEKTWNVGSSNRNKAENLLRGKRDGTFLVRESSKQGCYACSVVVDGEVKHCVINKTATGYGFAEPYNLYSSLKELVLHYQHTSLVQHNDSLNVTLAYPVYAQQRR
T2 sequence (P42336 whole entry): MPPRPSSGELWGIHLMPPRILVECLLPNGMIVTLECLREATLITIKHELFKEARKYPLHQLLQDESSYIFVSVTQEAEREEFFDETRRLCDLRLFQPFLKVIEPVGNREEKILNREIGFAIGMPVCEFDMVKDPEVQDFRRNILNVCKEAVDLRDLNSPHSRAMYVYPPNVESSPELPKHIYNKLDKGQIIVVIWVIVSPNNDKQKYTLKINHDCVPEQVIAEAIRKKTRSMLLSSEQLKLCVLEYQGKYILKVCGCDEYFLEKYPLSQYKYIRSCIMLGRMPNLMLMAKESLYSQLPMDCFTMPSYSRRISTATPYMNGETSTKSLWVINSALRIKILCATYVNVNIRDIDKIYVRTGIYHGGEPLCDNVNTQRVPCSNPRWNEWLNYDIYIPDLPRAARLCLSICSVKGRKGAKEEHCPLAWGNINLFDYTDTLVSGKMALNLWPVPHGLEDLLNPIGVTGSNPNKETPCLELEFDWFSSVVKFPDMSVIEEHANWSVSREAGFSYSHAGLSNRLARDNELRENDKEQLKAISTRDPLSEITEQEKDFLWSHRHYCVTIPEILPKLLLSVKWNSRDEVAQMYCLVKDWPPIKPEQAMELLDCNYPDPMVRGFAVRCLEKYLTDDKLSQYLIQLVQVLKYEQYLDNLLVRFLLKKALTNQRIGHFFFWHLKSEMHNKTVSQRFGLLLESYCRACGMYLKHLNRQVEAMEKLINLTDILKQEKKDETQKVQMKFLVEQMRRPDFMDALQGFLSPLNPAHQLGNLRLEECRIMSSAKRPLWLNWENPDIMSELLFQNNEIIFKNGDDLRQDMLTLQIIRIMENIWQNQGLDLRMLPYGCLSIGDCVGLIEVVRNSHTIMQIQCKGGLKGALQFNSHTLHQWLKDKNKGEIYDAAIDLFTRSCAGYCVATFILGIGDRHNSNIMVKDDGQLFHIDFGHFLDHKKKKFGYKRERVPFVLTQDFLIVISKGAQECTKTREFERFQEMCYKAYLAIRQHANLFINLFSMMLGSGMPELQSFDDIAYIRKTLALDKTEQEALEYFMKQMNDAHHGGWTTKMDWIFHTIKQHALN
T2 sequence (P27986 whole entry partner): as the sequence (P27986 whole entry partner) above

pIC50 (PI3K beta) | pIC50 (PI3Kalpha) | Structure (SMILES)
6.00 to 7.00 | < 6.00 | NC(=O)c1nc(-c2ccncc2)oc1Cc1ccc(Cl)cc1 [Compound 1, 5-(4-chlorobenzyl)-2-pyridin-4-yl-1,3-oxazole-4-carboxamide]
6.00 to 7.00 | < 6.00 | Clc1ccc(Cc2oc(-c3ccncc3)nc2-c2nnc[nH]2)cc1 [Compound 2, 4-[5-(4-chlorobenzyl)-4-(4H-1,2,4-triazol-3-yl)-1,3-oxazol-2-yl]pyridine]
